Results from patent US7687644B2, “Adamantyl pyrrolidin-2-one derivatives as 11-beta hydroxysteroid dehydrogenase inhibitors” (Janssen Pharmaceutica NV, priority 2004, dated 2010).

Assays:
11β-HSD2 [1] = biological target: T1, 11β-HSD2 (Homo sapiens, UniProt P80365); assay: Cellular assay, 11β-HSD2 activity in HepG2 cells; type: cell-based; parameters: endogenous in cells; host or cells: HepG2 (ATCC HB-8065); details: 4 hour pre-incubation, read-out: [C2] HSD2 cellular HepG2 Score
T1 sequence (P80365 1-405): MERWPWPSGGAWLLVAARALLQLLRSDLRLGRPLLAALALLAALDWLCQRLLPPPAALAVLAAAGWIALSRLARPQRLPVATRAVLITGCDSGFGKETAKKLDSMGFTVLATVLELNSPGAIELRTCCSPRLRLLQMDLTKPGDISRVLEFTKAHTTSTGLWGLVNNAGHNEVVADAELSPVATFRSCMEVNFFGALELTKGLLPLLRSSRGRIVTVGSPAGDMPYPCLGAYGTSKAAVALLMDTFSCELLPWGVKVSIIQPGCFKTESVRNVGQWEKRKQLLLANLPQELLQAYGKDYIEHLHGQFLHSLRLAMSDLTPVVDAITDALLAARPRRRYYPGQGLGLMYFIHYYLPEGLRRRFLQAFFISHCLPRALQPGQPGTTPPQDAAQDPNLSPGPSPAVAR
Experimental: The effects on 11β-HSD2 activity was studied in HepG2 and LCC-PK1-cells HepG2-cells (ATCC HB-8065) were seeded in 12 well plates at a density of 100,000′ cells/ml and grown at 37° C. in a humidified 5% CO2 atmosphere in MEM-Rega-3 medium supplemented with 10% heat inactivated foetal calf serum, 2 mM L-glutamine and sodium bicarbonate). Medium was refreshed twice a week.
Following a 4 hour pre-incubation with test compound, 0.5 μCi ^3H-cortisol or corticosterone, was added to the cultures. One hour later, the medium was extracted on Extrelut^3-columns with 15 ml diethyl ether and the extract was analysed by HPLC as described above.
As for the enzymatic assays, the compounds to be tested were taken from a stock is solution and tested at a final concentration ranging from −10^−5M to 3·10^−9M. From the thus obtained dose response curves, the pIC50 value was calculated and scored as follows; Score 1=pIC50 value<5, Score 2=pIC50 value in the range of 5 to 6, Score 3=pIC50 value>6. Some of the thus obtained results are summarized in the table below (in this table NT stands for Not Tested).

11β-HSD1 [2] = biological target: T2, 11β-HSD1 (Mus musculus, UniProt P50172); assay: Cellular assay, 11β-HSD1 activity in differentiated 3T3-L1 cells; type: cell-based; details: 4 hour pre-incubation, read-out: [C2] HSD1 cellular 3T3-L1 Score
T2 construct: endogenous in cells; host or cells: 3T3-L1 (ATCC-CL-173), differentiated into adipocytes
Experimental: The effects on 11β-HSD1 activity was measured in differentiated 3T3-L1 cells and rat hepatocytes.
Medium was refreshed twice a week.
One hour later, the medium was extracted on Extrelut^3-columns with 15 ml diethyl ether and the extract was analysed by HPLC as described above.
As for the enzymatic assays, the compounds to be tested were taken from a stock is solution and tested at a final concentration ranging from −10^−5M to 3·10^−9M.

11β-HSD1 [3] = biological target: 11β-HSD1 (Homo sapiens, UniProt P28845); assay: Enzymatic assay, 11β-HSD1 reductase activity (conversion of cortisone into cortisol); type: biochemical; details: recombinant protein, 2 μM cortisone, 45 minutes at 37° C.; read-out: [C1] HSD1-prot Reduct Score
Experimental: The effects of compounds on 11β-HSD1 dependent conversion of cortisone into cortisol (reductase activity) was studied in a reaction mixture containing 30 mM Tris-HCl buffer pH 7.2, 180 μM NADPH, 1 mM EDTA, 2 μM cortisone, 1 μl drug and/or solvent and 11 μg recombinant protein in a final volume of 100 μl.
(§1) All incubations were performed for 45 minutes at 37° C. in a water bath. The reaction was stopped by adding 100 μl acetonitrile containing 20 μg corticosterone as internal standard. After centrifugation, the product formation was analysed in the supernatant by HPLC on a Hypersyl BDS-C18 column using 0.05 mM ammonium acetate/methanol (50/50) as solvent. In all of the aforementioned assays, the drugs to be tested were taken from a stock solution and tested at a final concentration ranging from −10^−5M to 3·10^−9M. From the thus obtained dose response curves, the pIC50 value was calculated and scored as follows; Score 1=pIC50 value<5, Score 2=pIC50 value in the range of 5 to 6, Score 3=pIC50 value>6. Some of the thus obtained results are summarized in the table below (in this table NT stands for Not Tested).

11β-HSD2 [4] = biological target: T1, 11β-HSD2; assay: Enzymatic assay, 11β-HSD2 dependent dehydrogenase activity; type: biochemical; details: recombinant protein, 100 nM cortisol, 45 minutes at 37° C.; read-out: [C1] HSD2-prot Dehydro Score
Experimental: The effects on the 11β-HSD2 dependent dehydrogenase activity was studied in a reaction mixture containing 0.1M sodium phosphate buffer pH 7.5, 300 μM NAD, 100 nM cortisol (of which 2 nM is 3H-radio labelled), 1 μl drug and/or solvent and 2.5 μg recombinant protein in a final volume of 100 μl.
as §1

11β-HSD1 (Homo sapiens, UniProt P28845), sequence (P28845 whole entry, species assumed): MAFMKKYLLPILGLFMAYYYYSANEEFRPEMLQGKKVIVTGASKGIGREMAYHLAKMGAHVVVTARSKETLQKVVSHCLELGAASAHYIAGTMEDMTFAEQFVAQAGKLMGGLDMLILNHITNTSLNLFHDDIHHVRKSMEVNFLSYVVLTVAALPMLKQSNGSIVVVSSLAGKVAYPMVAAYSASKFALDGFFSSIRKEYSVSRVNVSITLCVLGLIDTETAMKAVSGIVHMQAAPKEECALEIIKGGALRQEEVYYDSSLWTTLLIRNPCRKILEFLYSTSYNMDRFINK
T2 sequence (P50172 whole entry): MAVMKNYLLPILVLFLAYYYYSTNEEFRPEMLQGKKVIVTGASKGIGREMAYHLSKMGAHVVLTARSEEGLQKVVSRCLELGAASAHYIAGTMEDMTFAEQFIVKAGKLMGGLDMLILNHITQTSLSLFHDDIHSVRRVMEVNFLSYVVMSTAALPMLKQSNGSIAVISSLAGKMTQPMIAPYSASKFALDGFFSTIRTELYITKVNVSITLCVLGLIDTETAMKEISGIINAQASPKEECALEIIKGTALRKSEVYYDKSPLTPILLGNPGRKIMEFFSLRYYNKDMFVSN

Row | Structure (SMILES) | IC50 (11β-HSD1 [2]) | other results
1 | Cc1cccc(CC2CCN(C3C4CC5CC(C4)CC3C5)C2=O)c1F (centres unmarked) [Compound 1] | < 1 µM | melting point: 101 to 102 °C; IC50 (11β-HSD2 [1]): > 10 µM; IC50 (11β-HSD1 [3]): < 1 µM
2 | Cc1cccc(CC2(C)CCN(C3C4CC5CC(C4)CC3C5)C2=O)c1F (centres unmarked) [Compound 2] | < 1 µM | melting point: 120.5 to 122 °C; IC50 (11β-HSD2 [1]): > 10 µM; IC50 (11β-HSD1 [3]): < 1 µM
3 | COc1cccc(CC2CCN(C3C4CC5CC(C4)CC3C5)C2=O)c1 (centres unmarked) [Compound 3] | < 1 µM | IC50 (11β-HSD2 [1]): > 10 µM; IC50 (11β-HSD1 [3]): < 1 µM
4 | O=C1C(Cc2cccc(OC(F)(F)F)c2)CCN1C1C2CC3CC(C2)CC1C3 (centres unmarked) [Compound 4] | < 1 µM | 
5 | O=C1C(Cc2cccc(Br)c2)CCN1C1C2CC3CC(C2)CC1C3 (centres unmarked) [Compound 5] | < 1 µM | 
6 | N#Cc1cccc(CC2CCN(C3C4CC5CC(C4)CC3C5)C2=O)c1 (centres unmarked) [Compound 6] | < 1 µM | 
7 | O=C1C(Cc2cccc(C(F)(F)F)c2F)CCN1C1C2CC3CC(C2)CC1C3 (centres unmarked) [Compound 7] | < 1 µM | 
8 | COc1cc(CC2CCN(C3C4CC5CC(C4)CC3C5)C2=O)cc(OC)c1 (centres unmarked) [Compound 8] | < 1 µM | IC50 (11β-HSD2 [1]): > 10 µM; IC50 (11β-HSD1 [3]): < 1 µM
9 | O=C1C(Cc2cc(C(F)(F)F)cc(C(F)(F)F)c2)CCN1C1C2CC3CC(C2)CC1C3 (centres unmarked) [Compound 9] | > 10 µM | 
10 | O=C1C(Cc2cc(F)cc(C(F)(F)F)c2)CCN1C1C2CC3CC(C2)CC1C3 (centres unmarked) [Compound 10] | 1 to 10 µM | 
11 | Cc1cc(C)cc(CC2CCN(C3C4CC5CC(C4)CC3C5)C2=O)c1 (centres unmarked) [Compound 11] | < 1 µM | 
12 | Cc1cccc(C)c1CC1CCN(C2C3CC4CC(C3)CC2C4)C1=O (centres unmarked) [Compound 12] | > 10 µM | 
13 | O=C1C(Cc2ccc(Cl)cc2)CCN1C1C2CC3CC(C2)CC1C3 (centres unmarked) [Compound 13] | > 10 µM | IC50 (11β-HSD2 [1]): > 10 µM; IC50 (11β-HSD1 [3]): < 1 µM
14 | O=C1C(Cc2ccc(F)cc2)CCN1C1C2CC3CC(C2)CC1C3 (centres unmarked) [Compound 14] | < 1 µM | IC50 (11β-HSD2 [1]): > 10 µM; IC50 (11β-HSD1 [3]): < 1 µM
15 | O=C1C(Cc2ccc(OC(F)(F)F)cc2)CCN1C1C2CC3CC(C2)CC1C3 (centres unmarked) [Compound 15] | > 10 µM | 
16 | Cc1ccc(CC2CCN(C3C4CC5CC(C4)CC3C5)C2=O)cc1 (centres unmarked) [Compound 16] | < 1 µM | IC50 (11β-HSD2 [1]): > 10 µM; IC50 (11β-HSD1 [3]): < 1 µM
17 | CC1(Cc2ccc(OC(F)(F)F)cc2)CCN(C2C3CC4CC(C3)CC2C4)C1=O (centres unmarked) [Compound 17] | < 1 µM | 
18 | Cc1cccc(C)c1CC1(C)CCN(C2C3CC4CC(C3)CC2C4)C1=O (centres unmarked) [Compound 18] | > 10 µM | 
19 | Cc1cc(C)cc(CC2(C)CCN(C3C4CC5CC(C4)CC3C5)C2=O)c1 (centres unmarked) [Compound 19] | < 1 µM | 
20 | COc1cc(CC2(C)CCN(C3C4CC5CC(C4)CC3C5)C2=O)cc(OC)c1 (centres unmarked) [Compound 20] | < 1 µM | 
21 | COc1cccc(CC2CCCN(C3C4CC5CC(C4)CC3C5)C2=O)c1 (centres unmarked) [Compound 21] | < 1 µM | 
22 | Cc1cccc(C)c1CC1CCCN(C2C3CC4CC(C3)CC2C4)C1=O (centres unmarked) [Compound 22] | > 10 µM | 
23 | O=C1C(Cc2ccc(OC(F)(F)F)cc2)CCCN1C1C2CC3CC(C2)CC1C3 (centres unmarked) [Compound 23] | > 10 µM | 

The next lines start with results.

Row | IC50 (11β-HSD1 [2]) | Structure (SMILES) | other results
24 | > 10 µM | Cc1cc(C)cc(CC2CCCN(C3C4CC5CC(C4)CC3C5)C2=O)c1 (centres unmarked) [Compound 24] | 
25 | < 1 µM | COc1cc(CC2CCCN(C3C4CC5CC(C4)CC3C5)C2=O)cc(OC)c1 (centres unmarked) [Compound 25] | 
26 | < 1 µM | Cc1cccc(CC2CCCN(C3C4CC5CC(C4)CC3C5)C2=O)c1F (centres unmarked) [Compound 26] | 
27 | > 10 µM | COc1cccc(CC2(C)CCCN(C3C4CC5CC(C4)CC3C5)C2=O)c1 (centres unmarked) [Compound 27] | 
28 | > 10 µM | COc1cc(CC2(C)CCCN(C3C4CC5CC(C4)CC3C5)C2=O)cc(OC)c1 (centres unmarked) [Compound 28] | 
29 | < 1 µM | COc1cccc(CC2(C)CCN(C3C4CC5CC(C4)CC3C5)C2=O)c1 (centres unmarked) [Compound 29] | IC50 (11β-HSD2 [1]): 1 to 10 µM; IC50 (11β-HSD1 [3]): < 1 µM
30 | < 1 µM | CC1(Cc2ccc(F)cc2)CCN(C2C3CC4CC(C3)CC2C4)C1=O (centres unmarked) [Compound 30] | IC50 (11β-HSD2 [1]): > 10 µM; IC50 (11β-HSD1 [3]): < 1 µM
31 | > 10 µM | COc1cccc(CC2(Cc3cccc(OC)c3)CCCN(C3C4CC5CC(C4)CC3C5)C2=O)c1 (centres unmarked) [Compound 31] | 
32 | < 1 µM | CC1(Cc2ccccc2)CCN(C2C3CC4CC(C3)CC2C4)C1=O (centres unmarked) [Compound 32] | 
33 | < 1 µM | O=C1C(Cc2ccccc2)CCN1C1C2CC3CC(C2)CC1C3 (centres unmarked) [Compound 33] | 
34 | > 10 µM | O=C1N(C2C3CC4CC(C3)CC2C4)C2CCC1(c1ccccc1)CC2 (centres unmarked) [Compound 34] | 
35 | < 1 µM | CC1(c2ccccc2)CCN(C2C3CC4CC(C3)CC2C4)C1=O (centres unmarked) [Compound 35] | 
36 | < 1 µM | O=C1N(C2C3CC4CC(C3)CC2C4)C2CCC1(Cc1ccccc1)CC2 (centres unmarked) [Compound 36] | 
37 | < 1 µM | O=C1C(Cc2ccccc2)CCN1[C@@H]1CC[C@]2(O)CC3CC2[C@H]1C3 (some centres unmarked) [Compound 37] | IC50 (11β-HSD2 [1]): > 10 µM
38 | < 1 µM | CC1(Cc2ccccc2)CCN([C@@H]2CC[C@]3(O)CC4CC3[C@H]2C4)C1=O (some centres unmarked) [Compound 38] | IC50 (11β-HSD2 [4]): > 10 µM
39 | < 1 µM | Cc1cccc(CC2CCN([C@@H]3CC[C@]4(O)CC5CC4[C@H]3C5)C2=O)c1F (some centres unmarked) [Compound 39] | IC50 (11β-HSD2 [4]): > 10 µM
40 | < 1 µM | Cc1cccc(CC2(C)CCN([C@@H]3CC[C@]4(O)CC5CC4[C@H]3C5)C2=O)c1F (some centres unmarked) [Compound 40] | IC50 (11β-HSD2 [1]): 1 to 10 µM; IC50 (11β-HSD2 [4]): > 10 µM
